Source: patent US20240210736A1, “MOUSE MYOPIA-INDUCED MODEL AND ENDOPLASMIC RETICULUM STRESS SUPPRESSANT FOR PREVENTING AND SUPPRESSING MYOPIA” (TSUBOTA LABORATORY, INC., priority 2017, published 2024)

Experiments:
[1] = system: mouse myopia-induced model; test: Mouse myopia-induced model (−30 D minus lens): suppression of myopia induction; conditions: for difference of variation in refractive value between lens-worn eyes and control eyes / difference of variation in axial length of the eye between lens-worn eyes and control eyes: 50 μM in PBS; for difference of variation in refractive value between lens-worn eyes and control eyes: FIG. 8A right graph; for difference of variation in axial length of the eye between lens-worn eyes and control eyes: FIG. 8B right graph; for refractive value variation of lens-worn myopia-induced eyes vs PBS administered group / axial length of the eye variation of lens-worn myopia-induced eyes vs PBS administered group: three weeks; for refractive value variation of lens-worn myopia-induced eyes vs PBS administered group: FIG. 6 left; for axial length of the eye variation of lens-worn myopia-induced eyes vs PBS administered group: FIG. 6 right
Experimental: Specifically, the mouse myopia-induced model is prepared as follows. Because it is easier to induce myopia to a juvenile mouse, it is preferable to mount the minus lens as soon as possible after the weaning. A 3-week-old C57BL6J is used here. The mouse is anesthetized with three types-mixed anesthetic of Domitor (Nippon Zenyaku Kogyo Co., Ltd.), Betorphal (Meiji Seika Pharma Co., Ltd.), and Midazolam (Sandoz K. K.). The skull is then opened with scissors. A post 1 is erected in the skull and fixed with dental cement (Super-Bond, Sun Medical Co., Ltd.). The post is threaded to fix an adjusting instrument described later with a nut.
To induce myopia, −30 diopter (D) minus lens (Rainbow contact, Rainbow Optical Laboratory Co., Ltd.) 2 is mounted on one side, and 0 D lens or only frame 3 is mounted on the other side as a control. A protector 4 having a laterally projected shape is mounted to a frame part in the lower portion of the lens to prevent the mouse from damaging the lens with its forelegs or the like when mounting the lens to the mouse. The protector 4 prevents the mouse from touching the lens, causing no damages on the lens. The protector 4 used here is in the form mounted to the frame part and integrated with it, although it needs not be integrated with the lens as long as the mouse behavior will not damage the lens.
An adjusting instrument 5 is bonded to a frame part in the upper portion of the lens to adjust the width and angle of the mounted lens in response to the growth of the mouse. The adjusting instrument 5 is folded in a dog leg shape. The adjusting instrument 5 includes one side mounted with the lens and the other side provided with a slot 6 for mounting the adjusting instrument 5 to the post 1 erected in the head. Putting the post 1 over the slot 6 and screwing it with a nut 7 can adhere and fix the adjusting instrument 5 to the skin without compressing the periphery of both eyes of the mouse.
An adjustment mechanism including three parts of the post 1, the nut 7, and the adjusting instrument 5 can adjust the width and angle to bring the lens to the mouse eye position in response to the growth of the mouse. Further, because the lens is detachable, it is possible to measure the change over time of the axial length of the eye and the refractive value.
The left eye was worn with only a frame as a control and the right eye was worn with a −30 D lens for three weeks. The refractive value, the axial length of the eye, and the sclera thickness were measured to find the differences between before and after wearing them. The refractive value was measured with a refractometer (Infrared photorefractor for mice, made by Proffesor Schaeffel, University of Tubingen). The axial length of the eye was measured with an SD-OCT (Spectral-Domain Optical Coherence Tomography, Envisu R4310, Bioptigen Inc.). The sclera thickness was measured by obtaining an optical image of a hematoxylin and eosin (HE) stained paraffin piece by an optical microscope (BX53, Olympus Corporation) and then using an imaging software cellSens. The results were analyzed with ANOVA, Turky HSD.
Then, an analysis was conducted to check for suppression of myopia induction by administration of endoplasmic reticulum stress suppressant. […] Note that only phosphate-buffered saline (PBS) was administered to the control group.

mouse eye = test: Induction of myopia by eye drop of endoplasmic reticulum stress inducer; type: in vivo, C57BL6J mouse; conditions: single eye drop, right eye, one week after administration, FIG. 7
Experimental: Because the endoplasmic reticulum stress suppressant has a suppression effect on myopia induction as describe above, it is considered that the endoplasmic reticulum stress directly participates in myopia induction. Then, an analysis was conducted to check for induction of myopia by administration of an agent for inducing endoplasmic reticulum stress. The subject was a 3-week-old male C57BL6J mouse (n=12). The right eye of the mouse was administered once by eye drop with 50 μg/ml of tunicamycin (Tm) (Sigma-Aldrich Co. LLC) or 10 μM of thapsigargin (TG) (Wako Pure Chemical Industries, Ltd.), and the left eye was administered once by eye drop with PBS (Veh).

[2] = eye drop once a day, one week, n=3
[3] = 0.2% solution in PBS, eye drop once a day, n=4
[4] = 2% solution in PBS, eye drop once a day, n=4

Question: With `C[C@H](CCC(=O)NCCS(=O)(=O)O)[C@H]1CC[C@H]2[C@@H]3[C@@H](O)C[C@@H]4C[C@H](O)CC[C@]4(C)[C@H]3CC[C@]12C` [tauroursodeoxycholic acid, Tauroursodeoxycholic acid] as the compound, how does the “changes in the refractive value, −30 D lens-worn eyes vs only frame-worn eyes” value ([1]; 100 mg/kg once a day intraperitoneal, one week after wearing the lens, n=4, FIG. 5 left) read?
Answer: no differences were recognized between both types of eyes

Question: And the “changes in the axial length of the eye of myopia-induced eyes vs PBS administered group” value ([1]; 100 mg/kg once a day intraperitoneal, one week after wearing the lens, n=4, FIG. 5 right)?
Answer: significant changes were recognized in the axial length of the eye

Question: How did the “difference of variation in refractive value between lens-worn eyes and control eyes” value [1, 2] turn out when `Cc1c(O)cccc1C(=O)N[C@@H](CSc1ccccc1)[C@H](O)CN1C[C@H]2CCCC[C@H]2C[C@H]1C(=O)NC(C)(C)C` [Nelfinavir] was run?
Answer: significant decrease in difference of variation

Question: And the “difference of variation in axial length of the eye between lens-worn eyes and control eyes” value [1, 2]?
Answer: significant decrease in difference of variation

Question: Which “refractive value variation of lens-worn myopia-induced eyes vs PBS administered group” value [1, 3] does the source give for sodium phenylbutyrate here?
Answer: showed a tendency to suppress changes

Question: What about the “axial length of the eye variation of lens-worn myopia-induced eyes vs PBS administered group” value [1, 3] of the same compound?
Answer: showed a tendency to suppress changes

Question: And the “variation in the refractive value, −30 D lens-worn eyes vs only frame-worn eyes” value ([1]; 200 mg/kg/day intraperitoneal, day 2 to 21 after wearing the lens, measured on day 21, FIG. 4A)?
Answer: no changes were recognized in the refractive value

Question: What about the “changes in the axial length of the eye, minus lens-worn eyes vs only frame-worn eyes” value ([1]; 200 mg/kg/day intraperitoneal, day 2 to 21 after wearing the lens, measured on day 21, FIG. 4B) of the same compound?
Answer: no difference was recognized in the extension

Question: And the “extension of the normal axial length of the eye associated with the growth” value ([1]; 200 mg/kg/day intraperitoneal, one week and three weeks after wearing the lens, FIG. 4C)?
Answer: does not affect the extension of the normal axial length of the eye associated with the growth

Question: What about the “refractive value variation of lens-worn myopia-induced eyes vs PBS administered group” value [1, 4] of the same compound?
Answer: significant differences were recognized

Question: What about the “axial length of the eye variation of lens-worn myopia-induced eyes vs PBS administered group” value [1, 4] of the same compound?
Answer: significant differences were recognized

Question: Which results are given for `Cc1cccc(CC(=O)N2CCc3c2ccc(-c2cn(C)c4ncnc(N)c24)c3F)n1` [GSK2656157]?
Answer: difference of variation in refractive value between lens-worn eyes and control eyes [1, 2]: significant decrease in difference of variation; difference of variation in axial length of the eye between lens-worn eyes and control eyes [1, 2]: significant decrease in difference of variation

Question: Which “axial length of the eye variation vs PBS administered eyes (myopia induction)” value (mouse eye; 10 μM) does the source give for `C/C=C(/C)C(=O)O[C@H]1C(C)=C2[C@H]([C@@H]1OC(=O)CCCCCCC)[C@@](C)(OC(C)=O)C[C@H](OC(=O)CCC)[C@@]1(O)[C@H]2OC(=O)[C@@]1(C)O` [thapsigargin] here?
Answer: significant differences were recognized

Question: What about the “refractive value variation vs PBS administered eyes (myopia induction)” value (mouse eye; 10 μM) of the same compound?
Answer: significant differences were recognized

Question: tunicamycin was tested. Which “axial length of the eye variation vs PBS administered eyes (myopia induction)” value (mouse eye; 50 μg/ml) did it give?
Answer: significant differences were recognized

Question: And the “refractive value variation vs PBS administered eyes (myopia induction)” value (mouse eye; 50 μg/ml)?
Answer: significant differences were recognized

Question: For `O=S(=O)(N=Cc1c(O)ccc2ccccc12)c1cccs1` [STF-083010], which “refractive value variation, lens-worn eye against lens-unworn control eye” value ([1]; 60 μM in PBS, eye drop once a day, one week, n=3, FIG. 8A) is on record?
Answer: showed significant changes

Question: And the “axial length of the eye variation, lens-worn eye against lens-unworn control eye” value ([1]; 60 μM in PBS, eye drop once a day, one week, n=3, FIG. 8B)?
Answer: showed significant changes
